Test results published in US20240299416A1, “TREATMENT OF NF-kB-MEDIATED DISEASE” (ReveraGen BioPharma, Inc., priority 2021, published 2024).

Key:
Assay type in all cases: in vivo, human
[1] = tested on: boys with DMD; assay: VBP15-003/VBP15-LTE motor outcomes over 18 months vs CINRG DNHS; conditions: vs corticosteroid-naïve participants, ANCOVA
Description: Assessments of efficacy were motor outcomes (primary outcome: time to stand from supine [TTSTAND]; secondary outcomes: time to run/walk 10 meters [TTRW], time to climb four stairs [TTCLIMB], distance covered in 6-minute walk test [6MWT], and the North Star Ambulatory Assessment [NSAA]). 6MWT and NSAA were not assessed in most CINRG DNHS participants and were not compared to vamorolone-treated participants. According to standard operating procedures, clinical evaluators were trained to harmonize the CINRG vamorolone, CINRG DNHS, and CINRG prednisone studies. Reliability of these outcomes (percent coefficient of variation) has been reported for the VBP15-002/VBP15-003 studies. Assessments were done at baseline (VBP15-002 entry), 24 weeks (VBP15-003 last visit), and 18 months (VBP15-LTE midpoint assessment at 12 months).
Only participants completing VBP15-002 and VBP15-003 were eligible to enroll in VBP15-LTE. […]
Statistical analyses were done on paired longitudinal outcome data using an analysis of covariance (ANCOVA) approach with change from baseline (VBP15-002) to month 18 (midpoint of VBP15-LTE). […] For the vamorolone-treated participants, age was calculated as (date of informed consent minus birthdate)/365.25. For the DNHS participants, age was calculated as (date of baseline visit used minus birthdate)/365.25. […]

[2] = VBP15-004 adverse events, Treatment Period 2 / cross-over
Procedure: Subjects already on vamorolone continued on the allocated dose level. Efficacy at Week 48 was assessed by Time to Stand ([…]) velocity, 6-Minute Walk Test (6MWT), Time to Run/Walk 10 meters (TTRW) velocity, and North Star Ambulatory Assessment (NSAA). […] In contrast, the persistence of effects with vamorolone 2 mg/kg/day was less pronounced for some parameters. The safety profile was consistent for subjects who continued on the same dose of vamorolone throughout the study, with no increase in frequency or severity of adverse events being observed over time. […] In addition, vamorolone treatment at both doses reversed the growth impairment seen during prednisone treatment and was associated with fewer adverse events, including those associated with corticosteroid use.

[3] = Physician-reported adverse events, VBP15-LTE/DSUR vs published corticosteroid studies
Procedure: Study visits took place quarterly, including assessment of clinical laboratory results, vital signs, and AEs. All AEs were coded using the Medical Dictionary for Regulatory Activities (MedDRA version 19.0) system for reporting (preferred term and system organ class). Clinical efficacy assessments were performed at baseline of the VBP15-002 study, at six months (end of VBP15-003 study), and the 12-month midpoint visit of the VBP15-LTE study.
The incidences of physician-reported AEs typically for corticosteroid treatment were determined for participants that had been treated with vamorolone 6.0 mg/kg/day (for any duration), taken from the March 2019 Data Safety Update Report (DSUR) (pharmacovigilance report). Incidence rates of Cushingoid features, weight gain, hirsutism, and behavior change were studied (Table 8).

[4] = after switch from prednisone to vamorolone 6 mg/kg/day
[5] = 6.0 mg/kg/day vamorolone, any duration, DSUR Mar. 2019

C[C@@H]1C[C@H]2[C@@H]3CCC4=CC(=O)C=C[C@]4(C)C3=CC[C@]2(C)[C@@]1(O)C(=O)CO [Vamorolone, 17α,21-dihydroxy-16α-methylpregna-1,4,9(11)-triene-3,20-dione]
TTCLIMB, LS mean difference [1]: -0.34 s
TTRW, LS mean difference [1]: -0.84 s
serious adverse events reported during vamorolone treatment ([2]; Treatment Period 2): Three
number of adverse events [2, 4]: 44
number of adverse events reported as behavioral disorders [2, 4]: 6
number of adverse events typically associated with corticosteroids [2, 4]: 16
reduction in number of adverse events [2, 4]: 37%
reduction in number of adverse events typically associated with corticosteroids [2, 4]: 60%
overall safety and tolerability in clinical studies ([2]; in vivo): generally safe and well-tolerated
Incidence of Cushingoid [3, 5]: 2.6%
Incidence of behavior change [3, 5]: 0%^2
Incidence of hypertrichosis/hirsutism [3, 5]: 0%
Incidence of weight gain [3, 5]: 13.2%
Cushingoid features among the 14 probably/definitely related AEs ([3]; VBP15-LTE, DSMB report): 1
TEAEs deemed definitely related ([3]; VBP15-LTE, DSMB report): three
TEAEs deemed possibly related ([3]; VBP15-LTE, DSMB report): 29
TEAEs deemed probably related ([3]; VBP15-LTE, DSMB report): 11
TEAEs deemed remotely related ([3]; VBP15-LTE, DSMB report): 37
TEAEs deemed unrelated ([3]; VBP15-LTE, DSMB report): 402
increased appetite among the 14 probably/definitely related AEs ([3]; VBP15-LTE, DSMB report): 2
irritability among the 14 probably/definitely related AEs ([3]; VBP15-LTE, DSMB report): 1
serious AEs (all deemed unrelated to study drug) ([3]; VBP15-LTE, DSMB report): three
weight gain among the 14 probably/definitely related AEs ([3]; VBP15-LTE, DSMB report): 10
